Test system: ATF4 luciferase reporter in HEK293T cells
Experiment: ATF4-Luc assay (in vitro model of VWMD)
Format: cell-based, human
Conditions: Homo sapiens, HEK-293T, 7 h, HEK293T cells carrying the ATF4 luciferase reporter, 1 μg/mL tunicamycin, One Glo luminescence
Procedure: In order to test exemplary compounds of the invention in a cellular context, a stable VWMD cell line was first constructed. The ATF4 reporter was prepared by fusing the human full-length ATF4 5′-UTR (NCBI Accession No. BC022088.2) in front of the firefly luciferase (FLuc) coding sequence lacking the initiator methionine as described in Sidrauski et al (eLife 2013). The construct was used to produce recombinant retroviruses using standard methods and the resulting viral supernatant was used to transduce HEK293T cells, which were then subsequently selected with puromycin to generate a stable cell line.
HEK293T cells carrying the ATF4 luciferase reporter were plated on polylysine coated 384-well plates (Greiner Bio-one) at 30,000 cells per well. Cells were treated the next day with 1 μg/mL tunicamycin and 200 nM of a compound of Formula (I) for 7 hours. Luminescence was measured using One Glo (Promega) as specified by the manufacturer. Cells were maintained in DMEM with L-glutamine supplemented with 10% heat-inactivated FBS (Gibco) and Antibiotic-Antimycotic solution (Gibco).
Table 4 below summarizes the EC50 data obtained using the ATF4-Luc assay for exemplary compounds of the invention.

SMILES	EC50 [nM]
O=C(COc1ccc(Cl)c(F)c1)NC12CCC(c3nnc([C@H]4C[C@@H](OC(F)(F)F)C4)o3)(CC1)CC2O (some centres unmarked) [Compound 124, 2-(4-chloro-3-fluorophenoxy)-N-(2-hydroxy-4-{5-[(1s,3s)-3-(trifluoromethoxy)cyclobutyl]-1,3,4-oxadiazol-2-yl}bicyclo[2.2.2]octan-1-yl)acetamide]	10 to 50
O=C(N[C@H]1C[C@H]2CC[C@@H](C1)N2CCCOc1ccc(Cl)cc1)C1C[C@@H](O)c2cc(Cl)ccc2O1 (stereo partly drawn) [Compound 125, (2R,4R)-6-chloro-N-{(1R,3r,5S)-8-[3-(4-chlorophenoxy)propyl]-8-azabicyclo[3.2.1]octan-3-yl}-4-hydroxy-3,4-dihydro-2H-1-benzopyran-2-carboxamide]	50 to 250
O=C1CC(C(=O)NC23CC(c4nnc([C@H]5C[C@@H](OC(F)(F)F)C5)o4)(C2)C3)Oc2ccc(Cl)cc21 (some centres unmarked) [Compound 151, 6-chloro-4-oxo-N-(3-{5-[(1s,3s)-3-(trifluoromethoxy)cyclobutyl]-1,3,4-oxadiazol-2-yl}bicyclo[1.1.1]pentan-1-yl)-3,4-dihydro-2H-1-benzopyran-2-carboxamide]	50 to 250
O=C(CO[C@H]1C[C@@H](OC(F)(F)F)C1)NC12CC(NC(=O)[C@H]3C[C@@H](O)c4cc(Cl)ccc4O3)(C1)C2 [Compound 164, (2R,4R)-6-chloro-4-hydroxy-N-[3-(2-{[cis-3-(trifluoromethoxy)cyclobutyl]oxy}acetamido)bicyclo[1.1.1]pentan-1-yl]-3,4-dihydro-2H-1-benzopyran-2-carboxamide]	< 10
O=C(CO[C@H]1C[C@@H](OC(F)(F)F)C1)NC12CC(NC(=O)[C@@H]3C[C@@H](O)c4cc(Cl)ccc4O3)(C1)C2 [Compound 208, (2S,4R)-6-chloro-4-hydroxy-N-[3-(2-{[cis-3-(trifluoromethoxy)cyclobutyl]oxy}acetamido)bicyclo[1.1.1]pentan-1-yl]-3,4-dihydro-2H-1-benzopyran-2-carboxamide]	< 10
O=C(NC12CC(n3cc(-c4ccc(OC(F)(F)F)c(F)c4)cn3)(C1)C2)[C@@H]1C[C@@H](O)c2cc(Cl)ccc2O1 [Compound 306, (2S,4R)-6-chloro-N-(3-{4-[3-fluoro-4-(trifluoromethoxy)phenyl]-1H-pyrazol-1-yl}bicyclo[1.1.1]pentan-1-yl)-4-hydroxy-3,4-dihydro-2H-1-benzopyran-2-carboxamide]	< 10
O=C(NC12CC(n3cc(-c4ccc(OC(F)(F)F)cn4)cn3)(C1)C2)[C@H]1C[C@@H](O)c2cc(Cl)ccc2O1 [Compound 308, (2R,4R)-6-chloro-4-hydroxy-N-(3-{4-[5-(trifluoromethoxy)pyridin-2-yl]-1H-pyrazol-1-yl}bicyclo[1.1.1]pentan-1-yl)-3,4-dihydro-2H-1-benzopyran-2-carboxamide]	< 10
O=C(NC12CC(c3cn(-c4ccc(Cl)c(F)c4)nn3)(C1)C2)[C@H]1C[C@@H](O)c2cc(Cl)ccc2O1 [Compound 311, (2R,4R)-6-chloro-N-{3-[1-(4-chloro-3-fluorophenyl)-1H-1,2,3-triazol-4-yl]bicyclo[1.1.1]pentan-1-yl}-4-hydroxy-3,4-dihydro-2H-1-benzopyran-2-carboxamide]	< 10
O=C(NC12CC(n3cc(-c4ccc(OC(F)(F)F)c(F)c4)cn3)(C1)C2)[C@H]1C[C@@H](O)c2cc(Cl)ccc2O1 [Compound 312, (2R,4R)-6-chloro-N-(3-{4-[3-fluoro-4-(trifluoromethoxy)phenyl]-1H-pyrazol-1-yl}bicyclo[1.1.1]pentan-1-yl)-4-hydroxy-3,4-dihydro-2H-1-benzopyran-2-carboxamide]	< 10
O=C(NC12CC(n3ccc([C@H]4C[C@@H](OC(F)(F)F)C4)n3)(C1)C2)[C@H]1C[C@@H](O)c2cc(Cl)ccc2O1 [Compound 314, (2R,4R)-6-chloro-4-hydroxy-N-(3-{3-[cis-3-(trifluoromethoxy)cyclobutyl]-1H-pyrazol-1-yl}bicyclo[1.1.1]pentan-1-yl)-3,4-dihydro-2H-1-benzopyran-2-carboxamide]	50 to 250
O=C(NC12CC(c3cn([C@H]4C[C@@H](OC(F)(F)F)C4)nn3)(C1)C2)[C@H]1C[C@@H](O)c2cc(Cl)ccc2O1 [Compound 315, (2R,4R)-6-chloro-4-hydroxy-N-(3-{1-[cis-3-(trifluoromethoxy)cyclobutyl]-1H-1,2,3-triazol-4-yl}bicyclo[1.1.1]pentan-1-yl)-3,4-dihydro-2H-1-benzopyran-2-carboxamide]	10 to 50
O=C(NC12CC(c3cnn([C@H]4C[C@@H](OC(F)(F)F)C4)c3)(C1)C2)[C@H]1C[C@@H](O)c2cc(Cl)ccc2O1 [Compound 316, (2R,4R)-6-chloro-4-hydroxy-N-(3-{1-[cis-3-(trifluoromethoxy)cyclobutyl]-1H-pyrazol-4-yl}bicyclo[1.1.1]pentan-1-yl)-3,4-dihydro-2H-1-benzopyran-2-carboxamide]	< 10
O=C(NC12CC(n3cc(-c4ccc(C(F)(F)F)cn4)cn3)(C1)C2)[C@@H]1C[C@@H](O)c2cc(Cl)ccc2O1 [Compound 317, (2S,4R)-6-chloro-4-hydroxy-N-(3-{4-[5-(trifluoromethyl)pyridin-2-yl]-1H-pyrazol-1-yl}bicyclo[1.1.1]pentan-1-yl)-3,4-dihydro-2H-1-benzopyran-2-carboxamide]	10 to 50
O=C(NC12CC(n3cc(N4CC[C@@H](OC(F)F)C4)cn3)(C1)C2)[C@H]1C[C@@H](O)c2cc(Cl)ccc2O1 [Compound 318, (2R,4R)-6-chloro-N-(3-{4-[(3R)-3-(difluoromethoxy)pyrrolidin-1-yl]-1H-pyrazol-1-yl}bicyclo[1.1.1]pentan-1-yl)-4-hydroxy-3,4-dihydro-2H-1-benzopyran-2-carboxamide]	50 to 250
COc1ncc(-c2cnn(C34CC(NC(=O)[C@@H]5C[C@H](O)c6cc(Cl)ccc6O5)(C3)C4)c2)cn1 [Compound 319, (2S,4S)-6-chloro-4-hydroxy-N-{3-[4-(2-methoxypyrimidin-5-yl)-1H-pyrazol-1-yl]bicyclo[1.1.1]pentan-1-yl}-3,4-dihydro-2H-1-benzopyran-2-carboxamide]	250 to 500
COc1ncc(-c2cnn(C34CC(NC(=O)[C@H]5C[C@@H](O)c6cc(Cl)ccc6O5)(C3)C4)c2)cn1 [Compound 320, (2R,4R)-6-chloro-4-hydroxy-N-{3-[4-(2-methoxypyrimidin-5-yl)-1H-pyrazol-1-yl]bicyclo[1.1.1]pentan-1-yl}-3,4-dihydro-2H-1-benzopyran-2-carboxamide]	10 to 50
O=C(NC12CC(n3cnc(C(=O)N4CC[C@@H](OC(F)(F)F)C4)c3)(C1)C2)[C@H]1C[C@@H](O)c2cc(Cl)ccc2O1 [Compound 321, (2R,4R)-6-chloro-4-hydroxy-N-(3-{4-[(3R)-3-(trifluoromethoxy)pyrrolidine-1-carbonyl]-1H-imidazol-1-yl}bicyclo[1.1.1]pentan-1-yl)-3,4-dihydro-2H-1-benzopyran-2-carboxamide]	10 to 50
O=C(N[C@@H]1CC[C@@H](C(=O)N2CC(c3ccc(C(F)(F)F)cc3)C2)OC1)[C@H]1C[C@@H](O)c2cc(Cl)ccc2O1 [Compound 322, (2R,4R)-6-chloro-4-hydroxy-N-[(3R,6S)-6-{3-[4-(trifluoromethyl)phenyl]azetidine-1-carbonyl}oxan-3-yl]-3,4-dihydro-2H-1-benzopyran-2-carboxamide]	< 10
O=C(N[C@H]1CC[C@H](C(=O)N2CC(c3ccc(C(F)(F)F)cc3)C2)CC1)[C@H]1C[C@@H](O)c2cc(Cl)ccc2O1 [Compound 323, (2R,4R)-6-chloro-4-hydroxy-N-[trans-4-{3-[4-(trifluoromethyl)phenyl]azetidine-1-carbonyl}cyclohexyl]-3,4-dihydro-2H-1-benzopyran-2-carboxamide]	< 10
O=C(NC12CC(n3cc(C(=O)N4CC[C@H](OC(F)(F)F)C4)cn3)(C1)C2)[C@@H]1C[C@@H](O)c2cc(Cl)ccc2O1 [Compound 324, (2S,4R)-6-chloro-4-hydroxy-N-(3-{4-[(3S)-3-(trifluoromethoxy)pyrrolidine-1-carbonyl]-1H-pyrazol-1-yl}bicyclo[1.1.1]pentan-1-yl)-3,4-dihydro-2H-1-benzopyran-2-carboxamide]	< 10
O=C(NC12CC(n3cc(N4CCC(OC(F)(F)F)C4)cn3)(C1)C2)[C@H]1C[C@@H](O)c2cc(Cl)ccc2O1 (stereo partly drawn) [Compound 325, (2R,4R)-6-chloro-4-hydroxy-N-(3-{4-[3-(trifluoromethoxy)pyrrolidin-1-yl]-1H-pyrazol-1-yl}bicyclo[1.1.1]pentan-1-yl)-3,4-dihydro-2H-1-benzopyran-2-carboxamide]	< 10
O=C(NC12CC(n3cc(C(=O)N4CC[C@H](OC(F)(F)F)C4)cn3)(C1)C2)[C@H]1C[C@@H](O)c2cc(C(F)(F)F)ccc2O1 [Compound 326, (2R,4R)-4-hydroxy-N-(3-{4-[(3S)-3-(trifluoromethoxy)pyrrolidine-1-carbonyl]-1H-pyrazol-1-yl}bicyclo[1.1.1]pentan-1-yl)-6-(trifluoromethyl)-3,4-dihydro-2H-1-benzopyran-2-carboxamide]	< 10
O=C(NC12CC(n3cc(-c4ccc(OC(F)F)nc4)cn3)(C1)C2)[C@H]1C[C@@H](O)c2cc(Cl)ccc2O1 [Compound 327, (2R,4R)-6-chloro-N-(3-{4-[6-(difluoromethoxy)pyridin-3-yl]-1H-pyrazol-1-yl}bicyclo[1.1.1]pentan-1-yl)-4-hydroxy-3,4-dihydro-2H-1-benzopyran-2-carboxamide]	< 10
